Measured values as given in patent publication EP3763715A1, “HARRINGTONINES SALTS, IN PARTICULAR RETINOATES, THEIR PROCESS OF PREPARATION AND THEIR USES IN THE TREATMENT OF LEUKEMIAS, CANCERS, AUTOIMMUNE, SKIN, ALZHEIMER'S AND INFLAMMATORY BOWEL DISEASES AND VIRAL INFECTIONS, COMBINED WITH MYELOPOIESIS STIMULATING AGENTS” (Robin, Jean-Pierre, priority 2019, dated 2021).

Columns and labels:
Swiss nu/nu mice = assay: Toxicity seen in mice bearing MDA-MB-468 xenografts (in vivo efficacy study); settings: 1 mg/kg, subcutaneously, bi-daily, mice with MDA-MB-468 xenografts; all mice died after only a few days; preliminary experiment, data not shown
Protocol: The experiments were conducted according to the Guide for the Care and Use of Laboratory Animals published by the US National Institutes of Health (NIH Publication n°85-23, revised 1996) and approved by the Ethic Committee of Clermont-Ferrand, France. All mouse studies were conducted in the animal facility of the INSERM U1240. Six weeks old Swiss nu/nu mice were purchased from Charles River Laboratories France and housed in standard conditions (n=5 per cage on ventilated racks, at 21-24 °C, 60% humidity, 12 h light/12 h dark cycle) with ad libitum access to irradiated food and water. […]
For assessment of HHT toxicity, groups of 6 mice were injected with sterile saline or 1, 2, 4 or 8 mg/kg of the drug, subcutaneously, bi-daily, over 7 days. […] The number of live animals was determined at days 4, 8 and 10, after treatment initiation.
For evaluation of HHT efficacy in vivo, when xenografts reached a volume of 200±20 mm^3, mice were randomized into the control or the treated group. […] Tumor size was non-invasively assessed using a digital caliper on days 3, 6, 8 and 10 after treatment initiation. Tumor volume was calculated using the following formula: V=(length×width^2)/2.

MDA-MB-468 = assay: Testing on breast cancer cell lines, sulforhodamine B (SRB) cell viability assay; type: cell-based, human; settings: MDA-MB-468 breast cancer cells, preliminary screening, read-out: M DA-MB-468 (BC) IC50
Protocol: Operating Procedure were performed as described in the recent paper of Yakhni et al [Yakhni AM J CANCER RES 2019; 9(5) in press "Homoharringtonine, on approved anti-leukemia drug, suppresses triple negative breast cancer growth through a rapid reduction of anti-apoptotic protein abundance"]
The cell lines used in this study were MDA-MB-231 (ATCC® HTB-26™), MDA-MB-468 (ATCC® HTB-132™), MDA-MB-157 (ATCC® HTB-24™) and CAL-51. Those lines were chosen to represent the BRCA1/2 non-mutated TNBC transcriptomic subtypes, currently most in need of efficacious treatment due to lower sensibility of BRCA1 wild-type TNBC to the DNA-damaging chemotherapy (Masuda et al., Clin Cancer Res. 2013, p5533; Jiang et al., PLoS Med. 2016, pe1002193; Park et al. ESMO Open. 2018, pe000357). CAL-51 line represents the mesenchymal transcriptomic subtype whereas MDA-MB-157 and MDA-MB-231 represent the mesenchymal stem-like subtype (Lehmann et al. J Clin Invest. 2011, p2750). MDA-MB-468 was used as a model of aggressive, PTEN-negative TNBC, with hyperactivated EGFR signaling pathway due to EGFR amplification (Filmus et al., Biochem Biophys Res Commun. 1985, p898). MDA-MB-468 transcriptome classifies it into the basal-like 1 subtype (49). The MDA lines were purchased from the American Type Culture Collection (ATCC, Manassas, VA, USA). The CAL-51 was kindly provided by Dr Gerard Milano, from the Centre Antoine Lacassagne, Nice, France, where the line has been established (Gioanni et al., Br J Cancer 1990, p8). After initial expansion, the cell line stock vials were conserved, in liquid nitrogen, at the Biological Resource Center of Jean Perrin Comprehensive Cancer Center (biobank ID BB-0033-00075, Clermont-Ferrand, France). The MDA cell lines were cultured in the Leibovitz L-15 medium, whereas CAL-51 line was maintained in DMEM (both media from Invitrogen Life Technologies, Carlsbad, CA, USA). The media were supplemented with 10% heat-inactivated fetal bovine serum and […] gentamicin. CAL-51 line was kept at 37°C, in a humidified atmosphere with 5% CO2; the MDA lines were kept under the same conditions, however, without CO2, in a free gas exchange with atmospheric air. All cell lines were maintained in monolayer culture, in the sub-confluent status, with no more 30 passages of the cells thawed from the stock vial.
Homoharringtonine was supplied by LeukePharma Inc. (Houston, TX, USA) as water-soluble, crystalline tartaric acid salt. Initial stock solution of HHT-tartrate was prepared at 10 mM in sterile deionized water, aliquoted and kept at -80°C. For each experiment, a fresh HHT solution was prepared by dissolving the HHT stock in phosphate-buffered saline (PBS, GIBCO™, Invitrogen, Cergy-Pontoise, France).
Cell viability was assessed using the sulforhodamine B (SRB) assay (Sigma-Aldrich, St Louis, MO, USA) according to the method described by Vichai and Kirtikara (Nat Protoc. 2006, p1112). Cells were seeded in 96-well plates, at 5x10^3 or 1x10^3 cells/well (the MDA cell lines and CAL-51, respectively), left overnight to adhere and then treated with growing concentrations of HHT for 24h, 48h or 72h. After incubation with the drug, cells were washed twice with PBS and left for 72 h in the corresponding complete culture medium. Then the cells were fixed with trichloroacetic acid (final concentration 10%) at 4°C for 1 h, followed with plate washing with water five times, air drying and staining with 0.4% SRB dissolved in 1% acetic acid, at room temperature, for 30 min. The plates were subsequently washed four times with 1% acetic acid to remove unbound stain. To solubilize the protein-bound dye, 10 mM Tris base solution was added to each well. The cell viability, estimated through the present protein biomass, was determined by measuring optical density of the dye, using a spectrophotometer at wavelength of 540 nm (BMG Labtech, Ortenberg, Germany).
Preliminary screening using these tumor cell lines are gathered in table 1.

HL-60 cell line = assay: Testing on HL-60 leukemia cell line (MTT cytotoxicity); type: cell-based, human; settings: HL-60 cells, medium with 20% fetal bovine serum, preliminary screening, read-out: HL60 (APL) IC50
Protocol: (§1) Retinoates of harringtonines described in this invention were tested on K562 cell line which is derived from the pleural effusion of a person with chronic myelogenous leukemia (CML, bcr-abl positive) in terminal blast crises (Lozzio and Lozzio, Blood, 1975, p321). The cell line was purchased from ATCC (American Tissue Culture Collection) and grown in RPMI medium supplemented with 10% heat-inactivated fetal calf serum, 2 mmol/L glutamine, […] penicillin and […] streptomycin. All tested products were initially dissolved in 2N HCl (pH=2) (alkaloid base) or in aqueous solvent (salt) or in DMSO (retinoids), supplemented with ultrasound treatment during 1 h. Working concentrations were made by dilution in culture medium (pH 7). Cells in exponential growth phase were placed into 96-microwell plates in concentration 3x10^4/mL (total volume 200 µL/well) and incubated with drugs for 72 h at 37° C. in 5% CO2 humidified atmosphere. Following incubation, 28 µL of MTT 3-(4,5 dimethylthiazol-2-yl)-2,5 tetrazolium bromide] dye solution (Sigma, St. Louis, Mo.) was added to each well. During the following 6 h of incubation at 37° C., the purple formazan product was formed by conversion of the yellow MTT salt in the mitochondria of the viable cells. The resulting precipitate was dissolved in DMSO and the amount of converted MTT was quantified in an ELISA reader (MR 5000, Dynatech). Each product was tested in triplicate (3x8 wells). Every test contained at least one plate with HHT as control, added in the same concentration as the tested products.
Retinoates of harringtonines described in this invention were tested on HL-60 cell line, derived from acute promyelocytic leukemia (APL) cells. HL-60 is a promyelocytic cell line derived by S.J. Collins, et al. (Proc. Natl. Acad. Sci. USA 1978 p2458). Peripheral blood leukocytes were obtained by leukopheresis from a person with APL (Gallagher R, et al. Blood 1978, p713) The cell line was purchased from ATCC (American Tissue Culture Collection) and the base growth medium was also completed with fetal bovine serum but at a final concentration of 20%, otherwise the same method than the one of example 10 was used.
Preliminary screening using this tumor cell lines are gathered in table 1.

K562 cell line = assay: Testing on K562 leukemia cell line (MTT cytotoxicity); type: cell-based, human; settings: K562 cells, 72 h incubation, preliminary screening, read-out: K562 (CML) IC50
Protocol: as §1

[1] = Solubility determination in water; type: physicochemical; settings: 25° C., semi-quantitative
Protocol: Solubility in water at 25° C. was measured semi-quantitatively at a threshold of 5 g per 100 mL. All the homoharringtonine salts described in the below examples, unless otherwise stated, are soluble at this threshold. Homoharringtonine base itself is soluble at a threshold lower than 0.1 g per mL.

| Compound | toxicity for the animals (Swiss nu/nu mice) | IC50 (MDA-MB-468) [nM] | IC50 (HL-60 cell line) [nM] | IC50 (K562 cell line) [nM] | solubility [1] [mg/mL] |
| --- | --- | --- | --- | --- | --- |
| COC(=O)C[C@](O)(CCCC(C)(C)O)C(=O)O[C@@H]1C(OC)=C[C@]23CCCN2CCc2cc4c(cc2[C@H]13)OCO4 [HHT, Homoharringtonine] | too toxic |  |  |  |  |
| CC1(C)CCC(C)(C)c2cc(C(=O)Nc3ccc(C(=O)O)cc3)ccc21.COC(=O)C[C@](O)(CCCC(C)(C)O)C(=O)O[C@@H]1C(OC)=C[C@]23CCCN2CCc2cc4c(cc2[C@H]13)OCO4 [Example 23, homoharringtonine Am 580 salt] |  | < 50 | < 100 | < 50 |  |
| C=C(c1ccc(C(=O)O)cc1)c1cc2c(cc1C)C(C)(C)CCC2(C)C.COC(=O)C[C@](O)(CCCC(C)(C)O)C(=O)O[C@@H]1C(OC)=C[C@]23CCCN2CCc2cc4c(cc2[C@H]13)OCO4 [Example 7, homoharringtonine "bexarotenoate"] |  | < 20 | < 20 | < 20 |  |
| CC1(C)CC=C(c2cnc3ccccc3c2)c2cc(C(=O)Nc3ccc(C(=O)O)cc3)ccc21.COC(=O)CC(O)(CCCC(C)(C)O)C(=O)O[C@@H]1C(OC)=C[C@]23CCCN2CCc2cc4c(cc2[C@H]13)OCO4 (stereo partly drawn) [Example 10, Butanedioic acid, 2-hydroxy-2-(4-hydroxy-4-methylpentyl)-, 1-[(1S,3aR,14bS)-1,5,6,8,9,14b-hexahydro-2-methoxy-4H-cyclopenta[c][1,3]dioxolo[4,5-h]pyrrolo[2,1-b][3]benzazepin-1-yl]4-methyl ester, 4-[[[5,6-Dihydro-5,5-dimethyl-8-(3-quinolinyl)-2-naphthalenyl]carbonyl]amino]benzoate] |  | < 50 | < 100 | < 50 |  |
| OP5215 bexarotenoate [Example 29] |  | < 10 | < 20 | < 10 |  |
| COC(=O)C[C@](O)(CCCC(C)(C)O)C(=O)O[C@@H]1C(OC)=C[C@]23CCCN2CCc2cc4c(cc2[C@H]13)OCO4 [Homoharringtonine base, Homoharringtonine] |  |  |  |  | < 100 |
| CC1(C)C(=O)C(C)(C)c2cc(C(=O)Nc3ccc(C(=O)O)cc3)ccc21.COC(=O)CC(O)(CCCC(C)(C)O)C(=O)O[C@@H]1C(OC)=C[C@]23CCCN2CCc2cc4c(cc2[C@H]13)OCO4 (stereo partly drawn) [Example 15, Butanedioic acid, 2-hydroxy-2-(4-hydroxy-4-methylpentyl)-, 1-[(1S,3aR,14bS)-1,5,6,8,9,14b-hexahydro-2-methoxy-4H-cyclopenta[a][1,3]dioxolo[4,5-h]pyrrolo[2,1-b][3]benzazepin-1-yl]4-methyl ester, 4-[[(2,3-Dihydro-1,1,3,3-tetramethyl-2-oxo-1H-inden-5-yl)carbonyl]amino]benzoate] |  | < 50 | < 100 | < 50 |  |
| OP5215, Am 580 salt [Example 27] |  | < 10 | < 20 | < 10 |  |
| OP5215 tamibarotenoate [Example 26] |  | < 10 | < 20 | < 10 |  |
| OP5215 adarotenoate [Example 28] |  | < 10 | < 20 | < 10 |  |
| COC(=O)CC(O)(CCCC(C)(C)O)C(=O)O[C@@H]1C(OC)=C[C@]23CCCN2CCc2cc4c(cc2[C@H]13)OCO4.O=C(O)c1ccc2cc(-c3ccc(O)c(C45CC6CC(CC(C6)C4)C5)c3)ccc2c1 (stereo partly drawn) [Example 11, Butanedioic acid, 2-hydroxy-2-(4-hydroxy-4-methylpentyl)-, 1-[(1S,3aR,14bS)-1,5,6,8,9,14b-hexahydro-2-methoxy-4H-cyclopenta[a][1,3]dioxolo[4,5-h]pyrrolo[2,1-b][3]benzazepin-1-yl]4-methyl ester, 6-[3-(1-adamantyl)-4-hydroxyphenyl]-2-naphtalenecarboxylate] |  | < 50 | < 100 | < 50 |  |
